# Patent US20230116137A1, “METHODS FOR TREATING COLORECTAL AND METASTATIC COLORECTAL CANCERS” (Isofol Medical AB, priority 2017, published 2023)
# Counter-ions that a name gives are not always drawn. Like-named read-outs stand apart in the source and are kept apart here.
# Columns and labels:
# colorectal tumors = conditions: cited from earlier work
# solid tumours = conditions: cited from earlier work
# [1] = tested on: solid tumors of stage IV metastatic colorectal cancer; assay: Treatment of patients diagnosed with stage IV metastatic colorectal cancer with bevacizumab, oxaliplatin, 5-FU and 6R-MTHF; CT measurement of lesions, RECIST 1.1; assay type: in vivo, human
# Source text: The ORR may be calculated as follows: ORR=sum of partial responses plus complete responses as per RECIST 1.1 (a set of published rules that define when tumours in cancer patients progress during treatments)([Eisenhauer E A, Therasse P, Bogaerts J, Schwartz L H, Sargent D, Ford R, et al. New response evaluation criteria in solid tumours: revised RECIST guideline (version 1.1). Eur J Cancer. 2009 January; 45(2):228-47; incorporated by reference in its entirety]. As defined herein, a “complete response (CR)” means the disappearance of all target lesions. Any pathological lymph nodes (whether target or non-target) must have reduction in short axis to <10 mm. As used herein, a “partial response (PR)” means at least a 30% decrease in the sum of diameters of target lesions, taking as reference the baseline sum diameters.As used herein, “progressive disease (PD)” means at least a 20% increase in the sum of diameters of target lesions, taking as reference the smallest sum on study (this includes the baseline sum if that is the smallest on study). […] The appearance of one or more new lesions is also considered progression.
# (§1) Bevacizumab was administered at a dose of 5 mg/kg by intravenous infusion over 30 to 90 minutes. Following administration of bevacizumab, oxaliplatin was administered at a dose of 85 mg/m^2 by intravenous infusion between 15 and 120 minutes. Following oxaliplatin administration, 5-fluorouracil (5-FU) at a dose of 400 mg/m^2 was administered by intravenous bolus within 5 minutes. Thirty minutes after administration of the 5-FU intravenous bolus, 6R-MTHF at a dose of 60 mg/m^2 was administered by intravenous bolus (completed within 3 minutes). About 5 minutes after completion of the 6R-MTHF intravenous bolus administration, an intravenous infusion of 5-FU at a dose of 2,400 mg/m^2 was initiated. The infusion was paused to administer an intravenous bolus of 6R-MTHF at a dose of 60 mg/m^2 (completed within 3 minutes). The 5-FU infusion was maintained for 46 hours.
# as §1, §1
# colorectal cancer = conditions: Phase IIb study; cited from earlier work
# pancreas cancer = conditions: CoFactor combined with 5-FU, phase I/II; cited from earlier work
# [2] = tested on: metastatic colorectal cancer; conditions: Phase II trial, previously untreated metastatic colorectal cancer; cited from earlier work
compound,measurement,setting,value
"O=c1[nH]cc(F)c(=O)[nH]1 [5-FU, 5-fluorouracil]",response rate,colorectal tumors; 5-FU given as a monotherapy,around 10%
same,overall response rate,solid tumours; 5-FU alone,10-15%
"Nc1nc2c(c(=O)[nH]1)N1CN(c3ccc(C(=O)N[C@@H](CCC(=O)O)C(=O)O)cc3)C[C@H]1CN2 [6R-MTHF, [6R]-5,10-methylene tetrahydrofolate]",tumor response,"[1]; Example 2 patient, second-line, 8-week treatment period",stable disease
same,size of lesions (CT),"[1]; Example 2 patient, second-line, baseline 25, 13 and 12 mm (abdomen), after 8 weeks (CT at 10 weeks plus 2 days)",unchanged in size
same,size of lesion,"[1]; Example 3 patient, second-line, 9 mm lesion, between 16 and 24 weeks",unchanged in size
same,tumor response,"[1]; Example 3 patient, second-line, after 8 weeks",partial response and no progression
same,tumor response,"[1]; Example 3 patient, second-line, after 16 weeks",partial response and no progression
same,fate of 10 mm lesion,"[1]; Example 3 patient, second-line, baseline 10 and 16 mm (liver and lung), 8 weeks",disappearance
same,size of lesion (CT-verified),"[1]; Example 3 patient, second-line, baseline 16 mm lesion, 8 weeks",13 mm
same,tumor response,"[1]; Example 3 patient, second-line, between 16 and 24 weeks",no progression
same,size of lesion (CT-verified),"[1]; Example 3 patient, second-line, lesion 16 mm at baseline, 13 mm at 8 weeks, after 16 weeks",9 mm
same,tumor response,"[1]; Example 4 patient, second-line, 8-week treatment period",stable disease
same,size of lesion,"[1]; Example 4 patient, second-line, baseline 35 mm (liver), after 8 weeks",unchanged in size
same,size of lesion,"[1]; Example 4 patient, second-line, baseline 35 mm (liver), after 16 and 24 weeks",unchanged in size
same,tumor response,"[1]; Example 4 patient, second-line, through 24 weeks",no progression
same,size of lesion,"[1]; Example 5 patient, second-line, baseline 80 mm (liver), after 8 weeks",96 mm
same,tumor response,"[1]; Example 6 patient, second-line, 8-week treatment period",stable disease
same,size of lesion,"[1]; Example 6 patient, second-line, 41 mm lesion (baseline 44 mm), after 16 weeks",unchanged in size
same,size of lesion,"[1]; Example 6 patient, second-line, baseline 44 mm (liver), after 8 weeks",41 mm
same,tumor response,"[1]; Example 6 patient, second-line, through 16 weeks",stable disease and no progression
same,tumor response,"[1]; Example 7 patient, second-line, 8-week treatment period",stable disease and no progression
same,size of lesion,"[1]; Example 7 patient, second-line, baseline 22 mm (liver), after 8 weeks",unchanged in size
same,size of lesion,"[1]; Example 7 patient, second-line, baseline 22 mm (liver), after additional four cycles (8 weeks)",unchanged in size
same,tumor response,"[1]; Example 7 patient, second-line, through 16 weeks",no progression
same,tumor response,"[1]; Example 8 patient, first-line, 8-week treatment period",stable disease and no progression
same,size of lesion,"[1]; Example 8 patient, first-line, baseline 72 mm (liver), after 8 weeks",59 mm
same,size of lesion,"[1]; Example 8 patient, first-line, baseline 72 mm, 59 mm at 8 weeks, after 16 weeks",53 mm
same,tumor response,"[1]; Example 8 patient, first-line, through 16 weeks",stable disease and no progression
same,tumor response,"[1]; Example 9 patient, second-line, 8-week treatment period",stable disease and no progression
same,tumor response,"[1]; Example 9 patient, second-line, 16-week treatment period",stable disease and no progression
same,size of lesion,"[1]; Example 9 patient, second-line, baseline 57 mm (abdomen), after 8 weeks",56 mm
same,size of lesion,"[1]; Example 9 patient, second-line, baseline 57 mm, 56 mm at 8 weeks, after 16 weeks",57 mm
same,tumor response,"[1]; Example 10 patient, second-line, 8-week treatment period",stable disease and no progression
same,tumor response,"[1]; Example 10 patient, second-line, 16-week treatment period",stable disease and no progression
same,size of lesion,"[1]; Example 10 patient, second-line, 188 mm lesion (baseline 250 mm), after 16 weeks",unchanged in size
same,size of lesion,"[1]; Example 10 patient, second-line, baseline 250 mm (abdomen), after 8 weeks",188 mm
same,size of lesion,"[1]; Example 11 patient, first-line, baseline 77 mm (liver), after 8 weeks",89 mm
same,tumor response,"[1]; Example 12 patient, second-line, 8-week treatment period",stable disease
same,size of lesion,"[1]; Example 12 patient, second-line, baseline 26 mm (lung), after 8 weeks",30 mm
"Nc1nc(=O)c2c([nH]1)NCC1CN(c3ccc(C(=O)N[C@@H](CCC(=O)[O-])C(=O)[O-])cc3)CN21.[Ca+2] (stereo partly drawn) [CoFactor, (dl)-5,10,-methylenepteroyl-monoglutamate calcium salt]",efficacy and safety versus leucovorin arm,colorectal cancer,no significant differences
same,"clinical benefit, defined as stable disease or tumor response, proportion of patients",pancreas cancer,40%
same,overall response rate,[2],35%
"Nc1nc2c(c(=O)[nH]1)N(C=O)C(CNc1ccc(C(=O)N[C@@H](CCC(=O)O)C(=O)O)cc1)CN2 (some centres unmarked) [LV, calcium salt of 5-formyl-5,6,7,8-tetrahydrofolic acid]",response rate,colorectal tumors; LV added to 5-FU,21%
same,overall response rate,solid tumours; LV added to 5-FU,over 20%
